According to patent publication US9006250B2, “4-amino-6-(heterocyclic)picolinates and 6-amino-2-(heterocyclic)pyrimidine-4-carboxylates and their use as herbicides” (Dow AgroSciences, LLC, priority 2013, dated 2015):

Columns and labels:
[1] = test system: ECHCG: barnyardgrass (Echinochloa crus-galli); assay: Post-Emergent Test I herbicidal activity; format: in vivo; conditions: 4 Kg ai/ha
Method: (§1) Post-Emergent Test I: Seeds test species were obtained from commercial suppliers and planted into a 5″-round pot containing soil-less media mix (Metro-Mix 360®, Sun Gro Horticulture). Postemergence treatments were planted 8-12 days (d) prior to application and cultured in a greenhouse equipped with supplemental light sources to provide a 16 hour (h) photoperiod at 24-29° C. All pots were surface irrigated. Approximately 10 milligrams (mg) of each compound were dissolved in 1.3 mL acetone-DMSO (97:3, v/v) and diluted with 4.1 mL water-isopropanol-crop oil concentrate (78:20:2, v/v/v) containing 0.02% Triton X-155. Treatments were serial diluted with the above formulation solvent to provide 1.85, 0.926, 0.462 and 0.231 mg/mL of test compound delivered in 2.7 mL/pot (roughly equivalent to 4.0, 2.0, 1.0, and 0.5 kg/ha, respectively). Formulated compounds were applied using a DeVilbiss® compressed air sprayer at 2-4 pounds per square inch (psi). Following treatment, pots were returned to the greenhouse for the duration of the experiment. All pots were sub-irrigated as need to provide optimum growing conditions. All pots were fertilized one time per week by subirrigating with Peters Peat-Lite Special® fertilizer (20-10-20). Phytotoxicity ratings were obtained 10 days after treatment postemergence applications. All evaluations were made visually on a scale of 0 to 100 where 0 represents no activity and 100 represents complete plant death. Visual assessments of plant injury were made based on growth reduction, discoloration, leaf deformity and necrosis.

[2] = test system: IPOHE: ivyleaf morningglory (Ipomoea hederecea); assay: Post-Emergent Test I herbicidal activity; format: in vivo; conditions: 4 Kg ai/ha
Method: as §1

[3] = test system: SETFA: giant foxtail (Setaria faberi); assay: Post-Emergent Test I herbicidal activity; format: in vivo; conditions: 4 Kg ai/ha
Method: as §1

[4] = test system: HELAN: sunflower (Helianthus annuus); assay: Post-Emergent Test I herbicidal activity; format: in vivo; conditions: 4 Kg ai/ha
Method: as §1

[5] = test system: AVEFA: wild oats (Avena fatua); assay: Post-Emergent Test I herbicidal activity; format: in vivo; conditions: 4 Kg ai/ha
Method: as §1

melting point [°C]	SMILES	Visual Growth Reduction (%) 10 Days After Application ECHCG [1]	Visual Growth Reduction (%) 10 Days After Application IPOHE [2]	Visual Growth Reduction (%) 10 Days After Application SETFA [3]	Visual Growth Reduction (%) 10 Days After Application HELAN [4]	Visual Growth Reduction (%) 10 Days After Application AVEFA [5]
–	COC(=O)c1nc(-c2ccc3nonc3c2F)cc(N)c1Cl [Compound 6, Methyl 4-amino-3-chloro-6-(4-fluorobenzo[c][1,2,5]oxadiazol-5-yl)picolinate]	G (0-29)	G (0-29)	G (0-29)	G (0-29)	G (0-29)
177 to 178	Nc1cc(-c2cc3nonc3cc2F)nc(C(=O)O)c1Cl [Compound 7]	–	–	–	–	–
